Experimental data reported in ChEMBL document CHEMBL5244273, “Tuberculosis: An Overview of the Immunogenic Response, Disease Progression, and Medicinal Chemistry Efforts in the Last Decade toward the Development of Potential Drugs for Extensively Drug-Resistant Tuberculosis Strains” (J Med Chem, 2021).
pEC50: −log10 of the molar value. Values after ≈ are worked out from the molar mass of the structure shown.

Key:
[1] = test system: Mycobacterium tuberculosis; experiment: Antimycobacterial activity against rifampicin resistant Mycobacterium tuberculosis by broth dilution method; format: functional
[2] = test system: Mycobacterium tuberculosis; experiment: Antimycobacterial activity against isoniazid, rifampicin, amikacin and moxifloxacin resistant Mycobacterium tuberculosis by broth dilution method; format: functional
[3] = test system: Mycobacterium tuberculosis; experiment: Antimycobacterial activity against isoniazid and rifampicin resistant Mycobacterium tuberculosis by broth dilution method; format: functional
[4] = test system: Mycobacterium tuberculosis; experiment: Potentiation of ethionamide induced antibacterial activity against Mycobacterium tuberculosis W4-E1 harboring EthA Gly343Ala mutant expressing GFP incubated for 5 days by fluorescence based analysis; format: functional, organism-based
[5] = test system: Mycobacterium tuberculosis; experiment: Antimycobacterial activity against multidrug resistant Mycobacterium tuberculosis H37Rv; format: functional
[6] = test system: Mycobacterium tuberculosis; experiment: Antimycobacterial activity against extensively drug resistant Mycobacterium tuberculosis H37Rv; format: functional

Cc1ccc(SCc2cn(C[C@@]3(C)Cn4cc([N+](=O)[O-])nc4O3)nn2)cc1
MIC [1]: 0.25 µg/mL (≈ 0.647 µM)
MIC [2]: 2 µg/mL (≈ 5.18 µM)
MIC [3]: 0.5 µg/mL (≈ 1.29 µM)

C[C@]1(Cn2cc(COc3ccccn3)nn2)Cn2cc([N+](=O)[O-])nc2O1
MIC [1]: 0.5 µg/mL (≈ 1.4 µM)
MIC [2]: 0.5 µg/mL (≈ 1.4 µM)
MIC [3]: 0.25 µg/mL (≈ 0.7 µM)

O=C(CCC(F)(F)F)N1CCC(c2cncc(C(F)(F)F)c2)CC1
pEC50 [4]: > 5.89

CC1=NOC2(CCN(C(=O)CCC(F)(F)F)CC2)C1
pEC50 [4]: > 6.85

CCCCCCOC1=NOC2(CCN(C(=O)CCC(F)(F)F)CC2)C1
pEC50 [4]: > 6.85

CC(=O)N1N=C(c2ccc3oc(NC(=O)c4ccccc4)nc3c2)CC1c1cccs1 (configuration not stated)
MIC [5]: 12.5 µg/mL (≈ 29 µM)
MIC [6]: 50 µg/mL (≈ 116 µM)

CC(C)c1ccc(OCc2cn(C[C@@]3(C)Cn4cc([N+](=O)[O-])nc4O3)nn2)cc1
MIC [1]: 2 µg/mL (≈ 5.02 µM)
MIC [2]: 4 µg/mL (≈ 10 µM)
MIC [3]: 1 µg/mL (≈ 2.51 µM)

O=C(CCC(F)(F)F)N1CCC(F)(c2ccc(F)nc2)CC1
pEC50 [4]: > 5.89

O=C(CCC(F)(F)F)N1CCC(c2cccc(Cl)n2)CC1
pEC50 [4]: > 5.89

CC(C)COC1=NOC2(CCN(C(=O)CCC(F)(F)F)CC2)C1
pEC50 [4]: > 6.85

O=C(CCC(F)(F)F)N1CCC(c2cncc(Cl)c2)CC1
pEC50 [4]: > 5.89

O=C(CCC(F)(F)F)N1CCC(c2ccnc(Cl)c2)CC1
pEC50 [4]: > 5.89

O=C(CCC(F)(F)F)N1CCC(c2cc(C(F)(F)F)ccn2)CC1
pEC50 [4]: > 5.89

CC(=O)N1N=C(c2ccc3oc(-c4ccc(O)cc4)nc3c2)CC1c1cccs1 (configuration not stated)
MIC [5]: 3.12 µg/mL (≈ 7.73 µM)
MIC [6]: 12.5 µg/mL (≈ 31 µM)

O=C(CCC(F)(F)F)N1CCC(F)(c2ccccn2)CC1
pEC50 [4]: > 5.89

O=C(CCC(F)(F)F)N1CCC(c2cccc(C(F)(F)F)n2)CC1
pEC50 [4]: > 5.89

C[C@]1(Cn2cc(-c3ccc(OC(F)(F)F)cc3)nn2)Cn2cc([N+](=O)[O-])nc2O1
MIC [1]: 2 µg/mL (≈ 4.87 µM)
MIC [2]: 1 µg/mL (≈ 2.44 µM)
MIC [3]: 2 µg/mL (≈ 4.87 µM)

O=C(CCCl)N1CCC2(CC1)CC(C(F)(F)F)=NO2
pEC50 [4]: > 6.85

O=C(CCC(F)(F)F)N1CCC(F)(c2cncc(C(F)(F)F)c2)CC1
pEC50 [4]: > 5.89

O=C(CCC(F)(F)F)N1CC(C2CCCCC2)C1
pEC50 [4]: > 7.12

C[C@]1(Cn2cc(COc3ccc(C(F)(F)F)cc3)nn2)Cn2cc([N+](=O)[O-])nc2O1
MIC [1]: 4 µg/mL (≈ 9.43 µM)
MIC [2]: 4 µg/mL (≈ 9.43 µM)
MIC [3]: 4 µg/mL (≈ 9.43 µM)

O=C(CCC(F)(F)F)N1CC(c2cccc(Cl)c2)C1
pEC50 [4]: > 7.12

O=C(CCCC(F)(F)F)N1CCC(c2cncc(Cl)c2)CC1
pEC50 [4]: > 5.89

O=C(CCC(F)(F)F)N1CCC2(CC1)CC(OCC(F)(F)F)=NO2
pEC50 [4]: > 6.85

O=C(CCC(F)(F)F)N1CCC(c2cccc(F)n2)CC1
pEC50 [4]: > 5.89

O=C(CCC(F)(F)F)N1CCC(c2cnc(F)c(F)c2)CC1
pEC50 [4]: > 5.89

O=C(CCC(F)(F)F)N1CCC(F)(c2ccnc(C(F)(F)F)c2)CC1
pEC50 [4]: > 5.89

O=C(CCC(F)(F)F)N1CCC(c2ncc(F)cc2F)CC1
pEC50 [4]: > 5.89

CC(=O)N1N=C(c2ccc3oc(NC(=O)CCl)nc3c2)CC1c1cccs1 (configuration not stated)
MIC [5]: 3.12 µg/mL (≈ 7.74 µM)
MIC [6]: 12.5 µg/mL (≈ 31 µM)

CCCOC1=NOC2(CCN(C(=O)CCC(F)(F)F)CC2)C1
pEC50 [4]: > 6.85

C[C@]1(Cn2cc(COc3cccc(Cl)c3)nn2)Cn2cc([N+](=O)[O-])nc2O1
MIC [1]: 2 µg/mL (≈ 5.12 µM)
MIC [2]: 4 µg/mL (≈ 10.2 µM)
MIC [3]: 2 µg/mL (≈ 5.12 µM)

C[C@]1(Cn2cc(COc3ccc(Br)cc3)nn2)Cn2cc([N+](=O)[O-])nc2O1
MIC [1]: 0.12 µg/mL (≈ 0.276 µM)
MIC [2]: 0.25 µg/mL (≈ 0.574 µM)
MIC [3]: 0.12 µg/mL (≈ 0.276 µM)

C[C@]1(Cn2cc(CN3CCOCC3)nn2)Cn2cc([N+](=O)[O-])nc2O1
MIC [1]: 2 µg/mL (≈ 5.72 µM)
MIC [2]: 2 µg/mL (≈ 5.72 µM)
MIC [3]: 2 µg/mL (≈ 5.72 µM)

COc1ccc(C2CCN(C(=O)CCC(F)(F)F)CC2)cn1
pEC50 [4]: > 5.89

Cc1ccccc1OCc1cn(C[C@@]2(C)Cn3cc([N+](=O)[O-])nc3O2)nn1
MIC [1]: 1 µg/mL (≈ 2.7 µM)
MIC [2]: 1 µg/mL (≈ 2.7 µM)
MIC [3]: 1 µg/mL (≈ 2.7 µM)

O=C(CCC(F)(F)F)N1CC(c2cc(F)c(F)c(F)c2)C1
pEC50 [4]: > 7.12

O=C(CCC(F)(F)F)N1CCC(c2cncc(C(F)(F)F)n2)CC1
pEC50 [4]: > 5.89

O=C(CCC(F)(F)F)N1CCC(c2ccnc(F)c2)CC1
pEC50 [4]: > 5.89

O=C(CCC(F)(F)F)N1CCC(c2ccncc2F)CC1
pEC50 [4]: > 5.89

O=C(CCC(F)(F)F)N1CCC2(CC1)CC(F)=NO2
pEC50 [4]: > 6.85

O=C(CCC(F)(F)F)N1CCC(c2ccc(F)nc2)CC1
pEC50 [4]: > 5.89

O=C(CCC(F)(F)F)N1CCC(F)(c2ccnc(Cl)c2)CC1
pEC50 [4]: > 5.89

O=C(CCC(F)(F)F)N1CCC(F)(c2cc(C(F)(F)F)ccn2)CC1
pEC50 [4]: > 5.89

C[C@]1(Cn2cc(-c3ccc(F)cc3)nn2)Cn2cc([N+](=O)[O-])nc2O1
MIC [1]: 2 µg/mL (≈ 5.81 µM)
MIC [2]: 2 µg/mL (≈ 5.81 µM)
MIC [3]: 2 µg/mL (≈ 5.81 µM)

C[C@]1(Cn2cc(-c3ccc(F)cc3F)nn2)Cn2cc([N+](=O)[O-])nc2O1
MIC [1]: 4 µg/mL (≈ 11 µM)
MIC [2]: 4 µg/mL (≈ 11 µM)
MIC [3]: 1 µg/mL (≈ 2.76 µM)

O=C(CCC(F)(F)F)N1CCC(c2cncc(Cl)c2)C1 (configuration not stated)
pEC50 [4]: > 5.89

C[C@]1(Cn2cc(COc3ccccc3F)nn2)Cn2cc([N+](=O)[O-])nc2O1
MIC [1]: 1 µg/mL (≈ 2.67 µM)
MIC [2]: 1 µg/mL (≈ 2.67 µM)
MIC [3]: 0.5 µg/mL (≈ 1.34 µM)

Cc1ccc(OCCc2cn(C[C@@]3(C)Cn4cc([N+](=O)[O-])nc4O3)nn2)cc1
MIC [1]: 1 µg/mL (≈ 2.6 µM)
MIC [2]: 0.25 µg/mL (≈ 0.65 µM)
MIC [3]: 0.25 µg/mL (≈ 0.65 µM)

O=C(CCC(F)(F)F)N1CCC(c2cncc(Cl)n2)CC1
pEC50 [4]: > 5.89

O=C(CCC(F)(F)F)N1CCC(c2ccc(F)nc2F)CC1
pEC50 [4]: > 5.89

Cc1cc(-c2cn(C[C@@]3(C)Cn4cc([N+](=O)[O-])nc4O3)nn2)ccc1F
MIC [1]: 1 µg/mL (≈ 2.79 µM)
MIC [2]: 2 µg/mL (≈ 5.58 µM)
MIC [3]: 4 µg/mL (≈ 11.2 µM)

COC1=NOC2(CCN(C(=O)CCCl)CC2)C1
pEC50 [4]: > 6.85

O=C(CCC(F)(F)F)N1CCC(c2ccc(F)cn2)CC1
pEC50 [4]: > 5.89

Cc1ccc(OCc2cn(C[C@@]3(C)Cn4cc([N+](=O)[O-])nc4O3)nn2)cc1
MIC [1]: 8 µg/mL (≈ 21.6 µM)
MIC [2]: 8 µg/mL (≈ 21.6 µM)
MIC [3]: 2 µg/mL (≈ 5.4 µM)

CCCCCc1cn(C[C@@]2(C)Cn3cc([N+](=O)[O-])nc3O2)nn1
MIC [1]: 8 µg/mL (≈ 25 µM)
MIC [2]: 8 µg/mL (≈ 25 µM)
MIC [3]: 2 µg/mL (≈ 6.24 µM)

CCOC1=NOC2(CCN(C(=O)CCC(F)(F)F)CC2)C1
pEC50 [4]: > 6.85

O=C(CCC(F)(F)F)N1CC(c2ccc(F)cc2F)C1
pEC50 [4]: > 7.12

O=C(CCC(F)(F)F)N1CCC(c2ccnc(C(F)(F)F)c2)CC1
pEC50 [4]: > 5.89

C[C@]1(Cn2cc(-c3ccc(C(F)(F)F)cc3)nn2)Cn2cc([N+](=O)[O-])nc2O1
MIC [1]: 4 µg/mL (≈ 10.1 µM)
MIC [2]: 2 µg/mL (≈ 5.07 µM)
MIC [3]: 2 µg/mL (≈ 5.07 µM)

O=C(CCC(F)(F)F)N1CCC(c2cncc(F)c2)CC1
pEC50 [4]: > 5.89

O=C(CCC(F)(F)F)N1CCC(F)(c2cncc(Cl)c2)CC1
pEC50 [4]: > 5.89

O=C(CCC(F)(F)F)N1CCC(F)(c2ccnc(F)c2)CC1
pEC50 [4]: > 5.89

NC(=O)N1N=C(c2ccc3oc(N)nc3c2)CC1c1cccs1 (configuration not stated)
MIC [5]: 12.5 µg/mL (≈ 38.2 µM)
MIC [6]: 50 µg/mL (≈ 153 µM)

C[C@]1(Cn2cc(COc3cccc(F)c3)nn2)Cn2cc([N+](=O)[O-])nc2O1
MIC [1]: 2 µg/mL (≈ 5.34 µM)
MIC [2]: 2 µg/mL (≈ 5.34 µM)
MIC [3]: 2 µg/mL (≈ 5.34 µM)

Cc1cccc(OCc2cn(C[C@@]3(C)Cn4cc([N+](=O)[O-])nc4O3)nn2)c1
MIC [1]: 1 µg/mL (≈ 2.7 µM)
MIC [2]: 2 µg/mL (≈ 5.4 µM)
MIC [3]: 1 µg/mL (≈ 2.7 µM)

CC(=O)N1N=C(c2ccc3oc(S)nc3c2)CC1c1cccs1 (configuration not stated)
MIC [5]: 25 µg/mL (≈ 72.8 µM)
MIC [6]: > 100 µg/mL

CC(=O)N1N=C(c2ccc3oc(N)nc3c2)CC1c1cccs1 (configuration not stated)
MIC [5]: 6.25 µg/mL (≈ 19.1 µM)
MIC [6]: 25 µg/mL (≈ 76.6 µM)

COc1cccc(C(=O)Nc2nc3cc(C4=NN(C(C)=O)C(c5cccs5)C4)ccc3o2)c1 (configuration not stated)
MIC [5]: 3.12 µg/mL (≈ 6.78 µM)
MIC [6]: 12.5 µg/mL (≈ 27.1 µM)

N#CC1=NOC2(CCN(C(=O)CCC(F)(F)F)CC2)C1
pEC50 [4]: > 6.85

O=C(CCC(F)(F)F)N1CCC2(CC1)CC(Br)=NO2
pEC50 [4]: > 6.85

C[C@]1(Cn2cc(-c3ccc(Oc4ccccc4)cc3)nn2)Cn2cc([N+](=O)[O-])nc2O1
MIC [1]: 1 µg/mL (≈ 2.39 µM)
MIC [2]: 1 µg/mL (≈ 2.39 µM)
MIC [3]: 1 µg/mL (≈ 2.39 µM)

Cc1cc(C2CCN(C(=O)CCC(F)(F)F)CC2)ccn1
pEC50 [4]: > 5.89

CCc1ccc(OCc2cn(C[C@@]3(C)Cn4cc([N+](=O)[O-])nc4O3)nn2)cc1
MIC [1]: 4 µg/mL (≈ 10.4 µM)
MIC [2]: 4 µg/mL (≈ 10.4 µM)
MIC [3]: 2 µg/mL (≈ 5.2 µM)

C[C@]1(Cn2cc(COc3ccc(OC(F)(F)F)cc3)nn2)Cn2cc([N+](=O)[O-])nc2O1
MIC [1]: 2 µg/mL (≈ 4.54 µM)
MIC [2]: 2 µg/mL (≈ 4.54 µM)
MIC [3]: 2 µg/mL (≈ 4.54 µM)

O=C(CCC(F)(F)F)N1CCC(F)(c2cccnc2)CC1
pEC50 [4]: > 5.89

CCC1=NOC2(CCN(C(=O)CCC(F)(F)F)CC2)C1
pEC50 [4]: > 6.85
